Source: US20120122908A1, “Novel C-4 Substituted Retinoids” (University of Maryland, priority 2000, published 2012)
Where two headings read alike, the source gives them in different places.

Key:
[1] = Pharmacokinetic studies in mice (plasma levels by HPLC); type: in vivo
Description: FIG. 18: Plasma Levels in Balb/c Mice Following Dose of 10 mg/kg body weight Given s/c.
Pharmacokinetic studies of VN/65-4 and VN/66-1 were measured in mice and were compared to VN/14-1 and VN/50A-1. Mice were dosed s.c. at 10 mg/kg using a vehicle, 45% β-cyclodextrin in water, and plasma levels were measured by HPLC. […] The results are summarized in Table 3 below and the profiles in FIG. 18.

[2] = target: T1, CYP17 (17-lyase) (Homo sapiens, UniProt P05093); test: Selectivity: effect on CYP17 (17-lyase); type: biochemical; details: concentration as high as 5 μM
T1 sequence (P05093 1-508): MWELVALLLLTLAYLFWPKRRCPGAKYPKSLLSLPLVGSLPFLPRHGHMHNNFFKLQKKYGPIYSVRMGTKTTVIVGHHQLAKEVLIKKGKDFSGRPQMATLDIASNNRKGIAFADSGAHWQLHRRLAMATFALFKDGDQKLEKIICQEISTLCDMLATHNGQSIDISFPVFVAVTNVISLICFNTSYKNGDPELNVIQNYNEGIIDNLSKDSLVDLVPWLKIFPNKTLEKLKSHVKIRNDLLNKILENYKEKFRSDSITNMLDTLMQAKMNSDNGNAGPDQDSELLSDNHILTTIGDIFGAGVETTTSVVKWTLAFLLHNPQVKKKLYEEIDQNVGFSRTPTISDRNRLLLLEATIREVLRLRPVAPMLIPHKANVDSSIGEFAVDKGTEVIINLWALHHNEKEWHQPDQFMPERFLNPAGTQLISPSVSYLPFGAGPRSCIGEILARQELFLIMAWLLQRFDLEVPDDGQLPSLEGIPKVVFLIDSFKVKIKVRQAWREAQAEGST
Description: The selectivity of the compounds of the present invention towards ATRA-4-hydroxylase was tested by measuring the effect on the key enzymes in the biosynthesis of estradiol and dehydroepiandrosterone, CYP19 (aromatase) and CYP17 (17-lyase), respectively.

[3] = target: T2, RAR ? (Homo sapiens, UniProt P10826); test: Competitive [3H]ATRA binding to recombinant RAR (third subtype); details: for binding to RAR (third subtype): concentrations up to 500 nM
T2 construct: Recombinant full-length RAR proteins were expressed as S-Tag fusion proteins in BL21 E. coli cells; S-Tag; made in house; host or cells: E. coli BL21
T2 sequence (P10826 1-455): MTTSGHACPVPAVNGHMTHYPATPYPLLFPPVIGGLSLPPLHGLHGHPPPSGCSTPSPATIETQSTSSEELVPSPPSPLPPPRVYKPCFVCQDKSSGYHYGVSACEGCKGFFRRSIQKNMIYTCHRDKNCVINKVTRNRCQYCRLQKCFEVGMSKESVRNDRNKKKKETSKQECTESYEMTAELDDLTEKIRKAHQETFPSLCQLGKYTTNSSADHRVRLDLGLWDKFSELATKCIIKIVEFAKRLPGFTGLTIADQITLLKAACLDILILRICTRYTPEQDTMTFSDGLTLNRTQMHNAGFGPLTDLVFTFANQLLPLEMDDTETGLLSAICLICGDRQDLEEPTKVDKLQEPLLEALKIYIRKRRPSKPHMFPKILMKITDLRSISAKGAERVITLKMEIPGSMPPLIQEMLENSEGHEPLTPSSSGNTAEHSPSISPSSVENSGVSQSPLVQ
Description: (§1) Because the novel compounds are retinoid-related analogs, they bind to the retinoid receptors in vivo and thus have increased therapeutic potentials. Similar to ATRA, these novel compounds act as a ligand for the retinoic acid receptors (RARs, α, β, and γ) but not the retinoid X receptors (RXRs, α, β, and γ). […] (Nervi C, Grippo J F, Sherman M I, George M D, Jetten A M, Identification and characterization of nuclear retinoic acid-binding activity inhuman myeloblastic leukemia HL-60 cells, Proc Natl Acad Sci USA 86: 5854-5858, 1989) The dissociation constants for the inhibitors is determined by the well described charcoal absorption method (Yang N, Schule R, Mangelsdorf D J, Evans R M, Characterization of DNA binding and retinoic acid binding properties of retinoic acid receptor, Proc Natl Acad Sci USA 88: 3559-3663, 1991). Briefly, serial dilutions of the novel compounds (10^−11 to 10^−5 M) in dimethyl sulfoxide, 100 μL each is used. 12 mg of crude cytosolic extracts is prepared from pET15b (Novagen, Madison, Wis.)/hRAR-α, -β, and -γ prepared protein is used for each data point. All reactions are conducted in binding buffer (60 mM Na imidazole, 500 mM NaCl, 20 mM Tris, pH 7.9) for 14-16 hours at 4° C. in a final volume of 1 mL. Unbound [^3H]ATRA is removed by addition of 0.5 mL of equivalent-sized dextran-treated charcoal (final concentration 3% [wt/vol]) for 15 minutes at 4° C. […]
(§2) Since the RAMBAs are retinoic acid analogs, it is possible that some of the compounds may bind to retinoid receptors and function as either transcriptional agonists/antagonists or may display anti AP-1 activity (Chambon P, A decade of molecular biology of retinoic acid, FASEB J 10: 5899-5904, 19962. The ability of three RAMBAs, VN/14-1, VN/50A-1 and VN/66-1 to bind to the individual RAR receptors was thus evaluated in vitro. Recombinant full-length RAR proteins were expressed as S-Tag fusion proteins in BL21 E. coli cells used for competitive binding assays. Each competition-binding assay contained 1 nM [^3H] […]

[4] = target: T3, RARγ (Homo sapiens, UniProt P13631); test: Competitive [3H]ATRA binding to recombinant RARγ; details: for binding to RARγ: concentrations up to 500 nM
T3 construct: Recombinant full-length RAR proteins were expressed as S-Tag fusion proteins in BL21 E. coli cells; S-Tag; made in house; host or cells: E. coli BL21
T3 sequence (P13631 1-454): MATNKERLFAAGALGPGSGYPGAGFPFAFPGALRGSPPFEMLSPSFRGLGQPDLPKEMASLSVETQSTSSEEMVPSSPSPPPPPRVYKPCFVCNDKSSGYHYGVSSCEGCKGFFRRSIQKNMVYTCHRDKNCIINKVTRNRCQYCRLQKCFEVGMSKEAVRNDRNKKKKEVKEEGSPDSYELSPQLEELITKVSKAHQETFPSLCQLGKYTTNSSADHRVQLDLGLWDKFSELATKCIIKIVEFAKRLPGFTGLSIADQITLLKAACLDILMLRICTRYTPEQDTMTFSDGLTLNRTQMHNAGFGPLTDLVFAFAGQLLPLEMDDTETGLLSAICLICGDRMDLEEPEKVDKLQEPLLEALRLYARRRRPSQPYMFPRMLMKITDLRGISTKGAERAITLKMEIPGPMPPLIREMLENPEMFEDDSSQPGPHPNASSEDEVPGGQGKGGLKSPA
Description: as §1, §2

[5] = mice, 10 mg/kg s.c., average of two animals
[6] = 1 nM [3H]ATRA, competitor 1 nM to 500 nM

Row | Compound | AUC [1, 5] [μ/ml min] | Cmax [1, 5] [ng/mL] | Tmax [1, 5] [min] | t1/2 [1, 5] [min] | inhibition of CYP17 (17-lyase) [2] | IC50 [3, 6] [nM] | IC50 [4, 6] [nM] | Cmax ([1]; Balb/c, mouse, plasma, sc, mice, 10 mg/kg s.c., average of two animals, read-out: Cmax) [ng/mL] | binding to RAR (third subtype) [3] | binding to RARγ [4] | time to complete elimination from plasma ([1]; after administration to mice, FIG. 18) [h]
1 | CC1=C(/C=C/C(C)=C/C=C/C(C)=C/C(=O)O)C(C)(C)CCC1n1ccnc1 (racemic) [VN/14-1, (±)-4-(1H-imidazole-1-yl)retinoic acid] | 567.80 | 5020 | 30 | 68.4 | barely inhibited | ~200 | ~16 |  |  |  | 
2 | CC(C=CC1=C(C)C(n2ccnc2)CCC1(C)C)=CC=CC(C)=CC(=O)Nc1ccc(O)cc1 (racemic) [VN/66-1, (±)-4-(1H-imidazol-1-yl), N-(4′-hydroxyphenyl)retinamide] |  |  |  |  | barely inhibited |  |  | 16000 | did not bind | did not bind | 
3 | CC(C=CC1=C(C)C(n2ccnc2)CCC1(C)C)=CC=CC(C)=CC(=O)n1ccnc1 (stereo not drawn) [VN/50A-1] |  |  |  |  | barely inhibited |  |  |  | did not bind | did not bind | ≤ 3
